From ChEMBL document CHEMBL1141240, “N-8-Substituted benztropinamine analogs as selective dopamine transporter ligands” (Bioorg Med Chem Lett, 2005)
pKi: −log10 of the molar value.

Key:
[1] = target: Sodium-dependent serotonin transporter (Homo sapiens, UniProt P31645); experiment: Displacement of [3H]citalopram from SERT
[2] = target: Sodium-dependent noradrenaline transporter (Homo sapiens, UniProt P23975); experiment: Displacement of [3H]nisoxetine from NET
[3] = target: T1, Muscarinic acetylcholine receptor M1 (Homo sapiens, UniProt P11229); experiment: Displacement of [3H]pirenzepine from Muscarinic receptor M1
T1 sequence (P11229 whole entry): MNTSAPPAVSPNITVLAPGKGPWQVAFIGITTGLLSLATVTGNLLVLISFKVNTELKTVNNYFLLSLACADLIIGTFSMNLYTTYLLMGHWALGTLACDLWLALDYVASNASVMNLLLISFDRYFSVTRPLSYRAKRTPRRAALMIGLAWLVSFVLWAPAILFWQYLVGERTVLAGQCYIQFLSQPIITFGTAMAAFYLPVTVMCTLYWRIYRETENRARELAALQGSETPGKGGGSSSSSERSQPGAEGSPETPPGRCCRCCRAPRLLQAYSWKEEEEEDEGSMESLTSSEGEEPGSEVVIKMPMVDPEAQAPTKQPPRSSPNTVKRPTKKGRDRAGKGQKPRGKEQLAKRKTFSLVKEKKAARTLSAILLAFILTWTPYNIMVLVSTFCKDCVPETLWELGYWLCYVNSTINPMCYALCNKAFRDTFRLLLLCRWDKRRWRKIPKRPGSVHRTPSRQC

[4] = Selectivity of SERT over DAT
[5] = Selectivity of NET over DAT
[6] = Selectivity of Muscarinic receptor M1 over DAT
[7] = target: Sodium-dependent dopamine transporter (Rattus norvegicus, UniProt P23977); experiment: Displacement of [3H]WIN-from DAT in rat brain membrane; assay type: cell membranes
Sodium-dependent dopamine transporter, sequence (P23977 whole entry): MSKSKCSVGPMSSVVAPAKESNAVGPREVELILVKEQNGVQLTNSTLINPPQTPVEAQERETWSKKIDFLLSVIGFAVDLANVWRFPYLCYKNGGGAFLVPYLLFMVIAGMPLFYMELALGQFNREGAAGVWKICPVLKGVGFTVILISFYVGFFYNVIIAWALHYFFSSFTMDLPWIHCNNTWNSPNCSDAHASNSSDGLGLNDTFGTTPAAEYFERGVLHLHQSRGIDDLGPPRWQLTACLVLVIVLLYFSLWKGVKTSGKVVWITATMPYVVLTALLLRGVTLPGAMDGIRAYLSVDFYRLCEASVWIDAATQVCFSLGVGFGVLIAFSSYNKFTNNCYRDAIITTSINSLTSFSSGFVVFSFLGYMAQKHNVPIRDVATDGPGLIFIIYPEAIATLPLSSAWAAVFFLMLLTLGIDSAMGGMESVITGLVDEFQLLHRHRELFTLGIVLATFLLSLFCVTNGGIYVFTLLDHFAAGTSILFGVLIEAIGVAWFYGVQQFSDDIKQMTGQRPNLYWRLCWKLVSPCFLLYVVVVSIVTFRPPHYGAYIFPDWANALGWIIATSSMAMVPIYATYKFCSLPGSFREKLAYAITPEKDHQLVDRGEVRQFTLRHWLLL

Sodium-dependent noradrenaline transporter, sequence (P23975 whole entry): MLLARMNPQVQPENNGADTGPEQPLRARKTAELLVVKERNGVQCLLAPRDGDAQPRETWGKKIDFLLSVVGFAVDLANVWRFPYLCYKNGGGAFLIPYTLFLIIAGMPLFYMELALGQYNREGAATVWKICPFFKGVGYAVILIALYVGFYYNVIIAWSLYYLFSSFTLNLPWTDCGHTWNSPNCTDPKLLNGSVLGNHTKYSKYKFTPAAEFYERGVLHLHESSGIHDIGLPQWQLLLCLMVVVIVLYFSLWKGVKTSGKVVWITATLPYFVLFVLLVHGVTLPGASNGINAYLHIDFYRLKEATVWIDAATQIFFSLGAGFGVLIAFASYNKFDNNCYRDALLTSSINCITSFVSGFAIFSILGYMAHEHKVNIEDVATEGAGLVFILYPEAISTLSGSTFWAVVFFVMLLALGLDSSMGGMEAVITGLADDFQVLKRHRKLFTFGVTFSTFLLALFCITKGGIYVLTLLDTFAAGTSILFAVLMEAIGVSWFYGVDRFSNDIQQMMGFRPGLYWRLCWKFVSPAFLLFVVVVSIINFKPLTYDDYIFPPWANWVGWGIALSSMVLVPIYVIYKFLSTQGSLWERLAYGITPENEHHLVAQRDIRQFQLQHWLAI
Sodium-dependent serotonin transporter, sequence (P31645 whole entry): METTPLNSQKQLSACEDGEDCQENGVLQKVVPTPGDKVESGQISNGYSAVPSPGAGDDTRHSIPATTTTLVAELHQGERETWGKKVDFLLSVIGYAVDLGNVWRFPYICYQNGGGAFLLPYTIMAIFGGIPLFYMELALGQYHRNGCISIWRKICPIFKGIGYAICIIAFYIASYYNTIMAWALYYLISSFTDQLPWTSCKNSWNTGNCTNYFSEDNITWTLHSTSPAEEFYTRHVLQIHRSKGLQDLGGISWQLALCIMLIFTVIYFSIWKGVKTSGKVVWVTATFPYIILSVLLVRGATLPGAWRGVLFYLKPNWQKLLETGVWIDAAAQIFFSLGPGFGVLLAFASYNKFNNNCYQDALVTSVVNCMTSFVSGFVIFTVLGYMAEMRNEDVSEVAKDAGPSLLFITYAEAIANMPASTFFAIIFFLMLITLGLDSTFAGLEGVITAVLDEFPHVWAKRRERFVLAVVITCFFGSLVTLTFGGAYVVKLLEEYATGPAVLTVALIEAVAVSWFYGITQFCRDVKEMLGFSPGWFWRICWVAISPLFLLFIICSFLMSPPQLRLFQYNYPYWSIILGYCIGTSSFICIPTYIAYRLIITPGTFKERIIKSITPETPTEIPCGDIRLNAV

SMILES | pKi [1] | pKi [2] | pKi [3] | Ratio Ki [4] | Ratio Ki [5] | Ratio Ki [6] | pKi [7]
CN1[C@@H]2CC[C@H]1C[C@@H](NC(c1ccc(Cl)c(Cl)c1)c1ccc(Cl)c(Cl)c1)C2 | 5.52 | 6.59 | 7.75 | 563 | 48 | 3 | –
CCCCN1[C@@H]2CC[C@H]1C[C@@H](NC(c1ccc(F)cc1)c1ccc(F)cc1)C2 | 5.58 | 5.53 | 6.34 | 123 | 136 | 21 | –
CN1[C@@H]2CC[C@H]1C[C@@H](NC(c1ccc(Cl)cc1)c1ccc(Cl)cc1)C2 | 5.38 | 5.12 | 7.30 | – | – | – | –
C=CCN1[C@@H]2CC[C@H]1C[C@@H](NC(c1ccc(F)cc1)c1ccc(F)cc1)C2 | 5.41 | 5.25 | 6.89 | 146 | 208 | 5 | –
CN1C2CCC1CC(OC(c1ccc(F)cc1)c1ccc(F)cc1)C2 (stereo unspecified) [DIFLUOROBENZTROPINE] | 5.49 | 6.07 | 7.94 | – | – | – | –
CN(C(c1ccc(F)cc1)c1ccc(F)cc1)[C@H]1C[C@H]2CC[C@@H](C1)N2C | 4.76 | 5.08 | 7.73 | 140 | 68 | 0.2 | –
NCCN1[C@@H]2CC[C@H]1C[C@@H](OC(c1ccc(F)cc1)c1ccc(F)cc1)C2 | – | – | – | – | – | – | 8.25
CN1[C@@H]2CC[C@H]1C[C@@H](NC(c1ccc(F)cc1)c1ccc(F)cc1)C2 | 5.06 | 5.74 | 8.11 | 769 | 160 | 0.7 | –
O=C(CCN1[C@@H]2CC[C@H]1C[C@@H](NC(c1ccc(F)cc1)c1ccc(F)cc1)C2)Nc1ccccc1 | 6.22 | 5.61 | 5.60 | 132 | 536 | 551 | –
NCCN1[C@@H]2CC[C@H]1C[C@@H](NC(c1ccc(F)cc1)c1ccc(F)cc1)C2 | 4.96 | 5.45 | 5.68 | – | – | 169 | –
Fc1ccc(C(N[C@H]2C[C@H]3CC[C@@H](C2)N3CCc2c[nH]c3ccccc23)c2ccc(F)cc2)cc1 | 6.46 | 5.08 | 6.38 | – | – | – | –
CN1[C@@H]2CC[C@H]1C[C@H](NC(c1ccc(F)cc1)c1ccc(F)cc1)C2 | 4.31 | 3.82 | 7.23 | 73 | 230 | 0.1 | –
Fc1ccc(C(N[C@H]2C[C@H]3CC[C@@H](C2)N3CCCCc2ccccc2)c2ccc(F)cc2)cc1 | 6.30 | 5.79 | 6.36 | 43 | 139 | 37 | –
Fc1ccc(C(N[C@H]2C[C@H]3CC[C@@H](C2)N3)c2ccc(F)cc2)cc1 | 5.38 | 6.00 | 6.81 | 491 | 118 | 18 | –
CN1[C@@H]2CC[C@H]1C[C@@H](NC(c1ccccc1)c1ccc(Cl)cc1)C2 (stereo partly specified) | 4.87 | 5.50 | 8.03 | 373 | 87 | 0.3 | –
Fc1ccc(C(O[C@H]2C[C@H]3CC[C@@H](C2)N3CCc2c[nH]c3ccccc23)c2ccc(F)cc2)cc1 | – | – | – | – | – | – | 7.53
O=C(CCN1[C@@H]2CC[C@H]1C[C@@H](OC(c1ccc(F)cc1)c1ccc(F)cc1)C2)Nc1ccccc1 | – | – | – | – | – | – | 8.21
